{
  "source": "patent US10010703B2",
  "about": "“Drug device configured for wireless communication” (POP TEST ABUSE DETERRENT TECHNOLOGY LLC, priority 2014, dated 2018)",
  "origin": "cited, not measured here",
  "key": {"[1]": {"target": "T1, glucocorticoid receptor (Homo sapiens, UniProt P04150)", "T1 sequence (P04150 1-777)": "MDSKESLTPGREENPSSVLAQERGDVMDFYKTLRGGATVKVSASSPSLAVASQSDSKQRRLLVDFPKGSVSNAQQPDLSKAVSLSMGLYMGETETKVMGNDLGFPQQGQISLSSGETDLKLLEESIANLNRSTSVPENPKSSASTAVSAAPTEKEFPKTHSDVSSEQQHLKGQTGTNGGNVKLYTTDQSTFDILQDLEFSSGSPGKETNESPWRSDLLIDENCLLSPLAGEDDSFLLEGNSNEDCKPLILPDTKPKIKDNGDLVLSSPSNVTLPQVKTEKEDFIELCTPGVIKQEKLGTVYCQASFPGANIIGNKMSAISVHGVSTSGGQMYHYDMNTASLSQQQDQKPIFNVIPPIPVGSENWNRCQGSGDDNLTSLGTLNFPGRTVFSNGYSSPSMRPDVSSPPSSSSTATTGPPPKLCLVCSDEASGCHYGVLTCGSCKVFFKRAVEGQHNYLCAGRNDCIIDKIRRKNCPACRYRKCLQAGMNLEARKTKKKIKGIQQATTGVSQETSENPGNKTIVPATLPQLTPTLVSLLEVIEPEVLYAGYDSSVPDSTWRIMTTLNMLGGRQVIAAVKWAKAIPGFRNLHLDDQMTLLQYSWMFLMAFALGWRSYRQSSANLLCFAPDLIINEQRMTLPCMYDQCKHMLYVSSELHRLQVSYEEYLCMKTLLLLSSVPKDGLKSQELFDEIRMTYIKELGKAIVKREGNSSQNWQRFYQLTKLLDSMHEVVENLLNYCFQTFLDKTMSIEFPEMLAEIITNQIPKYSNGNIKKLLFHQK"}, "[2]": {"target": "T2, progesterone receptor (Homo sapiens, UniProt P06401)", "T2 sequence (P06401 1-933)": "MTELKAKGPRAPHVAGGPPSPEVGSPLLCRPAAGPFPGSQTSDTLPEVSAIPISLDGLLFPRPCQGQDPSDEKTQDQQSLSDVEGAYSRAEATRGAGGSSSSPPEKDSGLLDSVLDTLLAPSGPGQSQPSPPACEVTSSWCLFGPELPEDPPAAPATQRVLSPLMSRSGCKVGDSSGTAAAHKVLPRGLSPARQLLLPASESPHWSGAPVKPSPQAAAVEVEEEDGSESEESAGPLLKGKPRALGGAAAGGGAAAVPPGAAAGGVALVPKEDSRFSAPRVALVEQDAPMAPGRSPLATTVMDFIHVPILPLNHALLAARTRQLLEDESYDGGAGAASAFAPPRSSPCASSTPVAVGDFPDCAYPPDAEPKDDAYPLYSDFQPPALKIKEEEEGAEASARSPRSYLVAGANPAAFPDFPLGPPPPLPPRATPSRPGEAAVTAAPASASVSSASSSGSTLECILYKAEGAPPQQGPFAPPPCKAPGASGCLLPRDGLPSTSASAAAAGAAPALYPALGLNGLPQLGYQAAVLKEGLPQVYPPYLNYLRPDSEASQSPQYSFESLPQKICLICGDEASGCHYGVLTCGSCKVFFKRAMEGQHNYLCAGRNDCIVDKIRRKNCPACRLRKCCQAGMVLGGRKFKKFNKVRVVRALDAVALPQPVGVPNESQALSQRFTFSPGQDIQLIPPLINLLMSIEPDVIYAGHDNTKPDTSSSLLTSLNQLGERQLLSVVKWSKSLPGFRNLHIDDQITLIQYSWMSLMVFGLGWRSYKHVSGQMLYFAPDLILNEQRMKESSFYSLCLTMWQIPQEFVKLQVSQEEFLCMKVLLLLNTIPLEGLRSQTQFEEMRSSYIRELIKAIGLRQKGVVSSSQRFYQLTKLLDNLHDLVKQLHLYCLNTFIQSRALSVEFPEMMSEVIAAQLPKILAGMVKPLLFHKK"}, "[3]": {"target": "T3, estrogen receptor (Homo sapiens, UniProt P03372)", "T3 sequence (P03372 1-595)": "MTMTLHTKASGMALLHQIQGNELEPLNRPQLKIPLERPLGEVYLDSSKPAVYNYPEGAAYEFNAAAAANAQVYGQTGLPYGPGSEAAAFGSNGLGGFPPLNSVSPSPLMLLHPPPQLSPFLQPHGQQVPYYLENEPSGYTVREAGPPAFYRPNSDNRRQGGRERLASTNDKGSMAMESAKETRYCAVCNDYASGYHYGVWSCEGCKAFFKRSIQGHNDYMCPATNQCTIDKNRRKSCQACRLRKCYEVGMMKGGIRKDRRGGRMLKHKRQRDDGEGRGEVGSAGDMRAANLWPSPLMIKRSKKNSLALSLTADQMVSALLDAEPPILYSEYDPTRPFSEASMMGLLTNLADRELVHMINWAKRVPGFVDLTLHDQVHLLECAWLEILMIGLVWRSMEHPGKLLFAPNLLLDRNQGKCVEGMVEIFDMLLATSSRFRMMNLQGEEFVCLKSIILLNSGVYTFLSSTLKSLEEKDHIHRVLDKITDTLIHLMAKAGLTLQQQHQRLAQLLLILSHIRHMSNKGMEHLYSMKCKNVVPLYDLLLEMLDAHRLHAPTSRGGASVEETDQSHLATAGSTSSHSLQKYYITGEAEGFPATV"}, "[4]": {"conditions": "phase I and phase II clinical trials"}},
  "data": [
    {"smiles": "CC#C[C@]1(O)CC[C@H]2[C@@H]3CCC4=CC(=O)CCC4=C3[C@@H](c3ccc4c(c3)OCO4)C[C@@]21C", "note": "[ORG 34517, (11β,17β)-11-(1,3-benzodioxol-5-yl)-17-hydroxy-17-(1-propynyl) estra-4,9-dien-3-one]", "values": [
      {"measurement": "glucocorticoid receptor binding affinity", "setting": "[1]", "value": "high"},
      {"measurement": "affinity for / cross-binding to progesterone receptor", "setting": "[2]", "value": "without significant cross-binding"},
      {"measurement": "affinity for / cross-binding to estrogen receptor", "setting": "[3]", "value": "without significant cross-binding"},
      {"measurement": "significant toxicities and side effects", "setting": "[4]", "value": "none were identified"}
    ]}
  ]
}
